Like-named read-outs stand apart in the source and are kept apart here.
Assay: Second sacrificial agent testing protocol: paste air measurements with DDBS (0.0125 wt %) and rating; for Overall performance rating (second protocol rating): key: 0: Fail; 1: Poor; 2: Good; 3: Preferred; 4: Most preferred; for SA Rating (0-4): key: 0: Fail; 1: Poor; 2: Good; 3: Preferred; 4: Most preferred
Conditions: for B1 + 0.0125% DDBS + 0.05% SA (air entrainment) / B1 + 0.0125% DDBS + 0.1% SA (air entrainment): B1 FA/cement paste; for PCA + 0.1% SA (level of air entrainment by the candidate sacrificial agent): Portland cement paste (PCA); for SA Rating (0-4): sacrificial agent overall rating index
Method: The second sacrificial agents evaluation protocol has been designed to assess the relative potential value of candidate sacrificial agents with a maximum of five paste air measurements.
The first two measurements (of entrained air) are carried out with a standard AEA in a portland cement paste and in a FA:cement paste; these two tests provide reference values which can be used for the relative assessment of a series of sacrificial agents. The other three paste air measurements pertain to the properties and effectiveness of the sacrificial agents.
1. Measurement of the air entrained by a standard air-entraining admixture in a cement paste of fixed composition and fluidity; the latter is a reference system which provides ‘reference’ air entrainment values (‘A’ in FIG. 8).
2. […] The difference between ‘B’ and ‘A’ in FIG. 8 is the reduction in air entrainment due to the presence of the fly ash; this is illustrated as ‘C’ in FIG. 8.
In the present SA testing and evaluation protocol, the fly ash selected should remain the same for the entire set of additives tested, in order to provide reliable relative performance ranking. For the present series of test, the Fly Ash selected was the one identified as B1 in Table 1 below; the physico-chemical properties of this fly ash are reported in Table 1.
In testing for the relative performance of the sacrificial agent, the sacrificial agent dosage was chosen in the range 0-0.1 wt %, which corresponds to typical dosage values observed in paste, mortar and concrete tests reported in Tables 2, 3 and 4 and Tables 7 to 34.
3. Measurement of the air entrainment of the SA, by itself, in a cement-only paste at a dosage of 0.1 wt %; this is illustrated as ‘D’ in FIG. 8.
4. Measurement of the air entrained by DDBS in the FA-cement paste comprising 0.05% wt SA, under the same conditions as described in 2 above. The air entrainment value observed in this system, compared to that observed in the absence of the SA, yields the air recovery due to the SA, and is illustrated schematically as ‘E’ in FIG. 8.
5. Same as in 4 above, but with a higher SA concentration at 0.1 wt %; the air entrainment observed, again compared to the value observed in the absence of the SA, yields a second value of air recovery by the SA and is illustrated as ‘F’ in FIG. 8.
For the relative performance rating of the group of products chosen as potential SA and listed in Table 36, the following rating scheme (Tables A and B) was adopted (referring to FIG. 8 and quantities defined therein):
1: Chemical name of compound tested as potential sacrificial agent • Col. 2: Level of air entrainment by the candidate sacrificial agent, at a concentration of 0.1 wt %, in a Portland cement paste ([…]) • Col. […] 5: Sacrificial agent overall rating index (described below) • Col. 6: Hydrophilic-Lipophilic Balance (HLB) values of candidate sacrificial agent (source and significance of HLB data given below) • Col. 7: Logarithm of the Oil(octanol)/water partition coefficient (Kow) of the candidate sacrificial agents (source and significance of data given below).

[1] = sum of ratings of air entrainment recovery by 0.05% and 0.1% SA, DDBS 0.0125 wt %, 50:50 B1 fly ash:cement paste

Molecule	B1 + 0.0125% DDBS + 0.05% SA (air entrainment) (0.0125 wt % DDBS, 0.05 wt % SA)	B1 + 0.0125% DDBS + 0.1% SA (air entrainment) (0.0125 wt % DDBS, 0.10 wt % SA)	PCA + 0.1% SA (level of air entrainment by the candidate sacrificial agent) ([…])	SA Rating (0-4)	Overall performance rating (second protocol rating) [1]	Overall performance rating (second protocol rating)	B1 + 0.0125% DDBS + 0.05% SA (air entrainment) ([…])	B1 + 0.0125% DDBS + 0.1% SA (air entrainment) ([…])	PCA + 0.1% SA (level of air entrainment by the candidate sacrificial agent) (0.1 wt % SA, no DDBS)
CCCCNC(N)=O [n-butyl urea]	5.3	7.5	2.1	4	4				
CCCCCCO [Hexanol]			0.0	1		1	4.2	2.7	
OCc1ccccc1 [Benzyl alcohol]	4.1	5.4	0.6	3	3				
CCCCN [n-butyl amine]			1.2	4		4	5.7	8.1	
CCOC(=O)CC [Ethylpropionate]	4.9	4.6	0.9	3	3				
CC(C)(C)O [tert-Butanol]			0.8	4			6.3	7.0	
CNC(=O)NC [Dimethylurea]		2.9	0.5	2	2				
CCCCCCCC/C=C\CCCCCCCC(=O)O [Oleic acid]			2.1	0			2.2	1.9	
CCCCCC(=O)O [Hexanoic acid]			2.4	4		4	5.1	4.9	
CC(O)CN(CC(C)O)CC(C)O (stereo not drawn) [Tri-isopropanolamine]			1.3	4			5.6	7.6	
CC(O)COC(C)COC(C)CO (stereo not drawn) [tri-Propylene glycol]			1.6	4		4	7.8	9.2	
CCCCOC(=O)c1ccccc1C(=O)OCCCC [N-Butyl phthalate]	2.2	2.1		0					0.0
Polyethylene glycol 400					4				
Aniline (Phenylamine)			1.7	2			3.7	5.6	

Reference: patent US7892350B2, “Sacrificial agents for fly ash concrete” (Boral Material Technologies Inc., priority 2003, dated 2011)
